According to publication PMC2192064 (The Journal of Experimental Medicine, 1995):
Blank lines part the entries; values can stand above or below the compound they belong to. Where no end group is shown, it is not given here.

Tests used:
[1] = biological target: T1, purified I-Au class II molecules (Mus musculus, UniProt P06344+P14438); experiment: Class II-peptide-binding inhibition assay, I-Au
T1 sequence (P14438 1-227): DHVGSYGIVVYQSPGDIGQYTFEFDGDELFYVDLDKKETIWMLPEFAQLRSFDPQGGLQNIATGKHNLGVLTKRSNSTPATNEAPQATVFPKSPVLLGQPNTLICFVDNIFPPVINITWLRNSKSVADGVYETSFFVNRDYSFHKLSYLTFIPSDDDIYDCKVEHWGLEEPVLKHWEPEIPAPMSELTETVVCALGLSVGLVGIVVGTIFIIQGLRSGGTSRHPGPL
T1 sequence (P06344 28-263): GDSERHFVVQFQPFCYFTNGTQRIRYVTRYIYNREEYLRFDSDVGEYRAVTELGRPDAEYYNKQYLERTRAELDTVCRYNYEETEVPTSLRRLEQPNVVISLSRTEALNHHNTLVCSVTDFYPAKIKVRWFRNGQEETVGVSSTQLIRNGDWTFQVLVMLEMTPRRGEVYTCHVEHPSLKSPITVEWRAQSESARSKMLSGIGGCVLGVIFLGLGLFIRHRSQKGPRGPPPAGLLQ

BWF1 mice = experiment: Pathogenic potential: immunization of young BWF1 mice with peptides; format: in vivo, mouse; details: p34 or p84 immunization vs PBS/CFA/alum; p <0.05
[2] = system: T cell-enriched splenic cells from 12-14-wk-old female BWF1 mice; experiment: Proliferation of unprimed splenic T cells in response to peptides; format: cell-based, mouse; details: result in words
[3] = biological target: I-Ad class II molecule (mouse); experiment: radioligand binding

- IC50 [1]: 8 nM
Compound: C[C@H](NC(=O)[C@H](C)NC(=O)[C@H](Cc1c[nH]cn1)NC(=O)[C@H](C)NC(=O)[C@H](C)NC(=O)[C@H](Cc1c[nH]cn1)NC(=O)[C@H](C)NC(=O)[C@H](C)NC(=O)[C@H](Cc1c[nH]cn1)NC(=O)[C@H](C)NC(=O)[C@H](C)NC(=O)[C@H](Cc1c[nH]cn1)NC(=O)[C@H](C)NC(=O)[C@H](C)NC(=O)[C@H](Cc1c[nH]cn1)NC(=O)[C@H](C)NC(=O)[C@@H](N)Cc1ccc(O)cc1)C(=O)O [RO IV]

Compound: MNWVKQSHGKSL [p34]
- plasma creatinine levels (BWF1 mice): increase in plasma creatinine levels
- proliferative responses in naive BWF1 T cells [2]: elicit proliferative responses

- IC50 [3]: 110 nM
Compound: OVA 323-336 (from UniProt P01012 324-337) (peptide)
